Measurements as given in patent US9637490B2, “Antifungal 5,6-dihydro-4-[(difluoroethyl)phenyl]-4H-pyrrolo[1,2-α][1,4]benzodiazepine and 4-(difluoroethyl)phenyl-6H-pyrrolo[1,2-α][1,4]benzodiazepine derivatives” (Janssen Pharmaceutica NV, priority 2010, dated 2017).

Tests used:
[1] = tested on: Aspergillus fumigatus B42928; test: Antifungal activity in vitro (resazurin susceptibility screen), Inf. E; assay type: cell-based; details: Aspergillus fumigatus, B42928, Aspergillus fumigatus B42928; 27 °C, 48 hours, resa time 17 hours
In short: (§1)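 Each isolate, diluted 1/1000 from cryostock to give 10^3 cfu/well, is exposed to serially diluted compound (max 64 μM) in RPMI-1640 supplemented with glutamine and glucose, MOPS-buffered at pH 7.0. Plates incubate 24 h at 37° C (yeasts) up to ≥1 week at 27° C (dermatophytes), then resazurin fluorescence is scored.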

[2] = tested on: Rhizomucor miehei IHEM13391; test: Antifungal activity in vitro (resazurin susceptibility screen), Inf. K; assay type: cell-based; details: Rhizomucor miehei, IHEM13391, Rhizomucor miehei IHEM13391; 37 °C, 48 hours, resa time 17 hours
In short: as §1

[3] = tested on: Scedosporium apiospermum IHEM3817; test: Antifungal activity in vitro (resazurin susceptibility screen), Inf. H; assay type: cell-based; details: Scedosporium apiospermum, IHEM3817, Scedosporium apiospermum IHEM3817; 37 °C, 48 hours, resa time 17 hours
In short: as §1

[4] = tested on: Microsporum canis B68128; test: Antifungal activity in vitro (resazurin susceptibility screen), Inf. B; assay type: cell-based; details: Microsporum canis, B68128, Microsporum canis B68128; 27 °C, 9 days, resa time 24 hours
In short: as §1

[5] = tested on: Cryptococcus neoformans B66663; test: Antifungal activity in vitro (resazurin susceptibility screen), Inf. F; assay type: cell-based; details: Cryptococcus neoformans, B66663, Cryptococcus neoformans B66663; 37 °C, 24 hours, resa time 4 hours
In short: as §1

[6] = In vivo pharmacokinetic determinations (bioavailability) in guinea pigs; details: guinea pig, po
Experimental: (§2) Three animals (mean weight 20±7 g for mice and 275±20 for Guinea pigs) were used per dose route, time point and formulation.
(§3) For the oral (PO) solution formulation, compound was dissolved in a 20% hydroxypropyl-β-cyclodextrin (HP-β-CD) solution at a final concentration of 1 mg/ml. HCl was added to facilitate dissolution. After dissolution, the pH was brought up to 3.7 with NaOH. Mannitol was added to make the solution isotonic. For the PO suspension formulation, compound was suspended in 0.5% methocel at a final concentration of 1 mg/ml. The formulations were stored at room temperature, protected from light and analysed quantitatively with LC-MS/MS on the day of preparation. Stability of the formulations was checked on the day of dosing.
(§4) The animals were dosed orally by gastric intubation at 10 ml/kg to obtain a final dose 10 mg/kg. Three dosed animals were sacrificed for blood sampling at 15 and 30 min, 1, 2, 3, 4, 6, 8 and 24 h after PO dose administration as a solution and at 30 min, 1, 2, 4, 6, 8 and 24 h after PO dose administration as a suspension.
(§5) Blood was collected by multiple sampling from a tail vein into Multivette® 600 K3E tubes (Sarstedt). Samples were placed immediately at approximately 4° C. and plasma was obtained following centrifugation at 4° C. for 10 minutes at approximately 1900×g. All samples were shielded from daylight and stored at ≦−18° C. prior to analysis.
(§6) Plasma samples were analysed for dosed compound using a qualified research LC-MS/MS method. The key analytical performance (linearity, upper and lower limit of quantification, accuracy and precision) of the method was reported together with the plasma concentrations.
(§7) A limited pharmacokinetic analysis was performed using WinNonlin™ Professional (Version 5.2.1). A non-compartmental analysis using the lin/log trapezoidal rule with lin/log interpolation was used for all data.

[7] = tested on: Rhizopus oryzae IHEM5223; test: Antifungal activity in vitro (resazurin susceptibility screen), Inf. J; assay type: cell-based; details: Rhizopus arrhizus, 37 °C, 24 hours, resa time 6 hours
In short: as §1

[8] = in vivo; design: species or system mice; details: mouse, po, 10 mg/kg
Experimental: as §2, §3, §4, §5, §6, §7

IC50 [1]: 2.24 µM | IC50 [2]: > 64.6 µM | IC50 [3]: > 64.6 µM | IC50 [4]: 0.479 µM | IC50 [5]: 21.4 µM | bioavailability [6]: 35% | melting point: 215.2 to 217.6 °C | IC50 [7]: > 64.6 µM | bioavailability [8]: 20%
SMILES: CC(F)(F)c1ccc(C2=NCc3c(Cl)cccc3-n3cccc32)cc1 [Compound 4, 7-chloro-4-[4-(1,1-difluoroethyl)phenyl]-6H-pyrrolo[1,2-a][1,4]benzodiazepine]
